Measurements reported in patent US9260700B2 (priority 2011, dated 2016).

How the values were obtained:
[1] = tested on: Myrothecium verrucaria bilirubin oxidase (BOD), produced in Pichia pastoris; conditions: pH 6.5, with respect to ABTS; cited from earlier work
[2] = target: Magnaporthe oryzae bilirubin oxidase (BOD), produced in Pichia pastoris, SEQ. ID. No.3 (SEQ. ID. No.1 with additional N-terminal serine) (Pyricularia oryzae, UniProt G4MQU0); format: biochemical; conditions: 37° C., citrate-phosphate buffer 50 mM pH 3.6, bilirubin 0 to 100 μM

Row | Compound | Km [1] | Km [2] | kcat [2]
1 | CCn1c(=NN=c2sc3cc(S(=O)(=O)O)ccc3n2CC)sc2cc(S(=O)(=O)O)ccc21 [ABTS, 2,2′-azino-bis(3-ethylbenzothiazoline-6-sulphonic acid)] | 340 µM |  | 
2 | conjugated bilirubin |  | 18.5 µM | 28 s⁻¹
